Data from patent EP0773292A1, “Immortalised embryonic hippocampal cells and their use” (BAYER AG, priority 1995, dated 1997).

Assays:
Assay type in all cases: cell-based, murine
[1] = test system: HC e/n XVB cells; test: Electrophysiology: whole-cell patch-clamp, ligand-activated currents; details: for ligand-activated currents: membrane potential clamped to -70mV
Method: (§1) Electrophysiological setup: Membrane currents were measured with the patch-clamp technique in the whole-cell recording configuration (Hamill et al. 1981, Pfluegers Arch. 391:85-100). Current signals were amplified with conventional electronics (EPC-9 amplifier, HEKA Elektronik GmbH, Lambrecht, Germany), filtered at 10kHz, and sampled at 5 kHz by an interface connected to an IBM AT-compatible computer system, which also served as a stimulus generator.
(§2) Solutions and electrodes: The standard bathing solution contained (in mM): Nacl 150, KCL 5, MgCl2 1.8, HEPES 5, and glucose 10. In some experiments an equimolar amount of NaCl was replaced by 5mM BaCl2. Recording pipettes had resistances about 5MΩ (Hilgenberg, Malsfeld, Germany). The pipettes contained (in mM): KCL 140, CaCl2 0.5, EGTA 5, MgCl2 2, and HEPES 10. The pH was adjusted to 7.4. In some experiments the pipette solution was designed to minimize the contribution of voltage-activated currents. In this case, investigating the ligand-activated currents, the pipette solution contained (in mM): CsCl 140, EGTA 10, and HEPES 10.
(§3) Ligands were dissolved in the extracellular saline solution and applied via an U-tube application system. To record ligand-induced currents, the membrane potential was clamped to -70mV. For measurements of voltage-activated currents, cells were held at -70mV and every second the membrane was stepped through a 50 msec. de- or hyperpolarising test pulse to a potential between -170 and +20 mV.

[2] = test system: HNMMCV13.1.E; test: as above; details: 13.1.E; membrane potential clamped to -70mV
Method: as §1, §2, §3

[3] = test system: HC e/n XV.B cells; test: Ca2+-imaging (Fura-2), rise in intracellular calcium
Method: (§4) Fluorescent Probe: Dynamic changes of intracellular calcium concentration were measured using the Fura-2 fluorescent probe (Roe et al. 1990, Cell Calcium 11:63-73). This fluorescent dye was chosen because of its selectivity, high quantum yield and extinction co-efficient. Fura-2 permeates the living cell as a acetoxymethylester and becomes trapped within the cell after hydrolysis by intracellular esterases. The calcium-sensitive free acid of Fura-2 is able to bind to calcium ions inside the cell. Fura-2 has an excitation maximum at 380 nm and the Fura2/calcium complex peaks at 340 nm. A change in intracellular calcium concentration was calculated by recording fluorescent video images at wavelengths of 340nm and 380nm excitation and 510nm emission and by dividing the grey values of the digitized video images of 380nm from 340nm.
(§5) Loading cells with Fura-2: A stock solution with 2mM Fura-2-acetoxymethylester in dimethylsulfoxide (DMSO) was diluted to 5-10 µM with serum free Minimal Essential Medium (MEM, Gibco) containing 1.5% bovine serum albumin and 5 mM calcium chloride. The cells were incubated in a Falcon 96 well plate for 45-60 minutes at 37°C. Subsequently the cells were washed twice in N-(2-Hydroxyethyl)piperazine-N'-(2-ethanesulfonic acid) (HEPES, 5mM) buffered Tyrode solution (HEPES buffered salt solution containing 130 mM NaCl, 5 mM KCl, 2 mM CaCl2, 1 mM MgCl2, 5mM NaHCO3, 11 mM Glucose).
(§6) Imaging procedure: 100 µl of Tyrode buffer was added to the plate wells and the cells were sequencially exposed to light at 340 nm and 380 nm under a fluorescent microscope (Nikon Diaphot). The exposition time was 100 ms. A series of video images at 3 second intervals was acquired and stored as digitised pictures in the image boards of an image analysis computer (Leica, Quantimet 570). After the acquisition of 8 images the test substances were applied. The grey levels of the cells, which correspond to the fluorescence intensity, were measured in the recorded video images. The ratio was determined by dividing the measured grey levels of the "380 nm images" by the grey levels of the "340 nm images" either from averaged images or from individual cells. For averaged results, the grey levels were measured over the whole images.
(§7) The cells were loaded with Fura 2/AM between day 3 and 7 in culture. A number of agonists were tested for their ability to activate specific receptors on the cell surface which leads to a rise in intracellular calcium. The rise in calcium concentration in the cytoplasm can occur after activation of specific calcium channels in the cell membrane, after activation of neurotransmitter receptors directly coupled to ion channels that are permeable to calcium ions (i.e. NMDA or AMPA type glutamate receptors), or by activation of receptors, which propagate the signal through the activation of specific G-proteins, which regulate the activity of different enzymes in the interior of the cell (Connor, Cell Calcium 14 (1993), 185-200; Crouch and Hendry, Medical Res. Rev. 13 (1993), 105-123). The activation of phospholipase C generates the second messengers diacylglycerol and inositoltriphosphate from phospholipids in the cell membrane. The binding of inositoltriphosphate to receptors localised on internal vesicles which store calcium ions leads to a transient rise in the concentration of calcium ions in the cytoplasm (Berridge, M.J. 1993, Nature 361: 315-325).

[4] = test system: HNMMCV11.2.0; test: as above
Method: as §4, §5, §6, §7

[5] = test system: HNMMCV13.1.E; test: as above
Method: as §4, §5, §6, §7

[6] = test system: HNMMCV13.1.F; test: as above
Method: as §4, §5, §6, §7

[7] = test system: HNMMCV14.1.A; test: as above
Method: as §4, §5, §6, §7

[8] = test system: HNMMCV14.1.A; test: Electrophysiology: whole-cell patch-clamp, ligand-activated currents
Method: as §1, §2, §3

[9] = test system: v-myc-expressing lines and clones; test: Induction of differentiation; details: 1mM dbcAMP
Method: For experiments in the presence of growth factors or other differentiation inducing agents, the primary cell cultures or the immortalised cell lines were cultured in the presence of one or a combination of the following: β-FGF, 1ng/ml, (Collaborative Research), EGF; 5 ng/ml or 10 ng/ml, (Collaborative Research), NGF (10 ng/ml, Collaborative Reasearch), dibutyryl cyclic adenosine monophosphate (dbcAMP, 1mM, Sigma, Heidelberg), retinoic acid (5 µM; Sigma), IL-7 (50 U/ml), TGFα (5ng/ml).
To induce differentiation in vitro several combinations of the following factors were used: retinoic acid (RA, 10 µM), NGF, β-FGF, EGF, IL-7, TGFα, dbcAMP (1mM). In addition the effect of co-culture with cortical glial cells originating from postnatal day 0 to 1 and granule neurons originating from postnatal day 6 mice was investigated.

With `N[C@@H](CCC(=O)O)C(=O)O` [Glutamate, L-glutamate] the ligand-activated currents ([1]; XV. B (with EGF, undifferentiated)) was “-”, the ligand-activated currents ([1]; XV. B/ - EGF (differentiated)) was “++ (++: 30-70% positive cells)” and the ligand-activated currents [2] was “+ (+: 10-30% positive cells)”.

For `C=C(C)[C@H]1CN[C@H](C(=O)O)[C@H]1CC(=O)O` [Kainate, kainic acid], the “transient rise in intracellular calcium concentration” value [3] was “reproducible calcium signal”, the “transient calcium currents after the application of agonists and antagonists” value (“transient calcium currents” below) [4] was “-” and the “transient rise in intracellular calcium concentration” value [4] was “did not result in a transient rise in intracellular calcium concentrations”. For the same compound, the “transient calcium currents” value [5] was “-”, the “transient rise in intracellular calcium concentration” value [5] was “did not result in a transient rise in intracellular calcium concentrations” and the “transient calcium currents” value [6] was “-”. For the same compound, the “transient rise in intracellular calcium concentration” value [6] was “did not result in a transient rise in intracellular calcium concentrations”, the “transient calcium currents” value [7] was “-” and the “transient rise in intracellular calcium concentration” value [7] was “did not result in a transient rise in intracellular calcium concentrations”. The “I/V curve of the ligand response” value [1] was “linear”, the “ligand induced inward currents” value [1] was “evoked responses with different peak amplitudes” and the “reversal potential of the ligand-activated current” value [1] was 0 mV. The ligand-activated currents [8] was “+ / -”.

With `CCCC(=O)Nc1ncnc2c1ncn2[C@@H]1O[C@@H]2COP(=O)(O)O[C@H]2[C@H]1OC(=O)CCC` [dbcAMP, dibutyryl cyclic adenosine monophosphate] the “expression of MAP-2” value ([9]; cell line HNMMCV11.2.) was “induction of the expression of MAP-2” and the “differentiation of the cells” value ([9]; v-myc-expressing lines and clones) was “induced a partial differentiation”.
